From patent US20030017518A1, “Non-radio-active assay of LPS kinases” (priority 2001, published 2003)

Experiments:
[1] = system: E. coli F470 (waaP−)/waaPPa(K69R); assay: MIC of novobiocin and SDS, in vivo complementation assay; type: cell-based
From the text: (§1) Site-directed mutagenesis and in vivo complementation assay—waaP was amplified by polymerase chain reaction (PCR) from pCOREc1 (de Kievit and Lam, 1997) with the flanking up- and down-stream primers ^5′[…]^3′ (SEQ ID NO: 3) and ^5′[…]^3′ (SEQ ID NO: 4) containing Baam HI and Hind III respectively. The PCR product was cloned into the complementation vector pUCP26 (West, 1994) as a positive control for complementation assay. Mutations of waaP were introduced by the method of “overlapping extension” as described by Horton (Horton, 1993) using PCR with the flanking primers as well as the primers shown below. K69A mutation was introduced with the primer (only up-strand was described here) ^5′[…]^3′ (SEQ ID NO: 5); K69R with ^5′[…]^3′ (SEQ ID NO: 6); D163A with ^5′[…]^3′ (SEQ ID NO: 7); and D163E with ^5′[…]^3′ (SEQ ID NO: 8). Underlined nucleotides indicated the mutations. The PCR products were then cloned into pUCP26 at Bam HI and Hind III sites respectively, and transformed into E. coli F470 7waaP- (Yethon 1998). Constructs of the mutations of waaP were sequenced to confirm the mutation. In vivo complementation was tested for the minimum inhibition concentration (MIC) of SDS and novobiocin, respectively according to Walsh, et al. 2000. E. coli F470 7waaP- was used as the negative control.
(§2) To validate the accuracy of the alignment comparisons in FIG. 2, site-directed mutagenesis of waaPPa was performed targeting on K^69 and […], respectively. The effect of the site-directed mutation was evaluated by their ability to complement waaP-Ec. It is noteworthy that the complementation assay was performed using waaP-Ec since waaP mutation is lethal to P. aeruginosa. In Table I, the complementation of waaP-Ec by wild type waaPPa increased the MICs of waaP-Ec by 3 and 30 times to novobiocin and SDS, respectively. However, the MICs of all the mutants were at the same level as that of waaP-Ec.

[2] = system: E. coli F470 (waaP−)/waaPPa(D163E); assay: as above; type: cell-based
From the text: as §1, §2

[3] = system: E. coli F470 (waaP−)/waaPPa(K69A); assay: as above; type: cell-based
From the text: as §1, §2

[4] = system: E. coli F470 (waaP−)/waaPPa; assay: as above; type: cell-based; details: for increase of the MIC of waaP-Ec by complementation with wild type waaPPa: versus E. coli F470 waaP− mutant
From the text: as §1, §2

E. coli F470 (waaP−) = assay: as above; type: cell-based
From the text: as §1, §2

[5] = system: E. coli F470 (waaP−)/waaPPa(D163A); assay: as above; type: cell-based
From the text: as §1, §2

F470 (wild type) = assay: as above; type: cell-based, E. coli
From the text: Site-directed mutagenesis and in vivo complementation assay—waaP was amplified by polymerase chain reaction (PCR) from pCOREc1 (de Kievit and Lam, 1997) with the flanking up- and down-stream primers ^5′[…]^3′ (SEQ ID NO: 3) and ^5′[…]^3′ (SEQ ID NO: 4) containing Baam HI and Hind III respectively. The PCR product was cloned into the complementation vector pUCP26 (West, 1994) as a positive control for complementation assay. Mutations of waaP were introduced by the method of “overlapping extension” as described by Horton (Horton, 1993) using PCR with the flanking primers as well as the primers shown below. K69A mutation was introduced with the primer (only up-strand was described here) ^5′[…]^3′ (SEQ ID NO: 5); K69R with ^5′[…]^3′ (SEQ ID NO: 6); D163A with ^5′[…]^3′ (SEQ ID NO: 7); and D163E with ^5′[…]^3′ (SEQ ID NO: 8). Underlined nucleotides indicated the mutations. The PCR products were then cloned into pUCP26 at Bam HI and Hind III sites respectively, and transformed into E. coli F470 7waaP- (Yethon 1998). Constructs of the mutations of waaP were sequenced to confirm the mutation. […]
To validate the accuracy of the alignment comparisons in FIG. 2, site-directed mutagenesis of waaPPa was performed targeting on K^69 and […], respectively. The effect of the site-directed mutation was evaluated by their ability to complement waaP-Ec. […]

[6] = molecular target: T1, WaaP from E. coli (WaaPEc) (Escherichia coli, UniProt Q9R9D6); details: cited from earlier work
T1 construct: His-tag (N)
T1 sequence (Q9R9D6 whole entry): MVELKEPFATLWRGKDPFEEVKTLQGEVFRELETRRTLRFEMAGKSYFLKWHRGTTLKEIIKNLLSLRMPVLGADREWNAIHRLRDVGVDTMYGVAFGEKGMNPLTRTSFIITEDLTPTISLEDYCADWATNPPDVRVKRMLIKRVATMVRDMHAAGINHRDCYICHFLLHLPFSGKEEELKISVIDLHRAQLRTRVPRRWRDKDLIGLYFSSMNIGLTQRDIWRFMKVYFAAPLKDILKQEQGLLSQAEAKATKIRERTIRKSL

WaaPHisC = molecular target: T2, WaaPHisC (Pseudomonas aeruginosa, UniProt Q9HUF7); type: biochemical, P. aeruginosa
T2 construct: made in house; host or cells: E. coli BL21(DE3)pLysS, vector pET30a(+)
Description: Antigen coating was accomplished by adding 50 μl LPS or enzyme reaction mixture to each well and then mixing with equal amount of chloroform-ethanol ([…]/EtOH) (1:10, v/v)). The plate was incubated at room temperature in the fume hood (flow rate at 150 ft·min^−1) overnight to allow the evaporation of the solvent. The ELISA was performed according to Bantroch et al. (1994) (Bantroch, 1994) with the following modifications. […] For the colorimetric method (Bantroch, 1994), the ELISA was developed at 37° C. for 2 h and the optical density at 405 nm was determined on a microplate reader (Flow Laboratories, Mississauga, ON). For the chemiluminescence development, 100 μl of the chemiluminescence substrate CDP-Star® Ready-to-Use with Emerald-II™ (CDP*) (Applied Biosystems, Bedford, Mass.) with 1:5 (v/v) diluted in diethanolamine buffer (9.6% (v/v) and 0.01% (w/v) MgCl2, pH 9.8) was added to each well. After incubation at room temperature for 20 min, the response of chemiluminescence was measured on a 1420-VICTOR^2 Multilabel Counter (Wallac, Montreal, QC) using chemiluminescence program.
The reaction mixture was incubated at 37° C. for 30 min (15 min for kinetics experiments) and quenched by the addition of 50 μl chloroform/ethanol (1:10) solution. The plate was then left at room temperature in the fume hood overnight and subjected to ELISA the next morning. PAO1-LPS was used as the standard to quantify phosphorylated LPS.
Therefore, the reactions on the kinetics studies measured the phosphorylation within the initial 15 min.

CO[C@@H]1[C@@H](OC(N)=O)[C@@H](O)[C@H](Oc2ccc3c(O)c(NC(=O)c4ccc(O)c(CC=C(C)C)c4)c(=O)oc3c2C)OC1(C)C [Novobiocin, novobiocin]
MIC ([1]; Escherichia coli): 50 µg/mL | MIC ([2]; Escherichia coli): 50 µg/mL | MIC ([3]; Escherichia coli): 50 µg/mL | MIC ([4]; Escherichia coli): 150 µg/mL | increase of the MIC of waaP-Ec by complementation with wild type waaPPa [4]: 3 times | MIC (E. coli F470 (waaP−); Escherichia coli): 50 µg/mL | MIC ([5]; Escherichia coli): 25 µg/mL | MIC (F470 (wild type); Escherichia coli): > 200 µg/mL

CCCCCCCCCCCCOS(=O)(=O)[O-].[Na+] [SDS]
MIC ([1]; strain E. coli F470 (waaP−)/waaPPa(K69R)): 400 µg/mL | MIC ([2]; strain E. coli F470 (waaP−)/waaPPa(D163E)): 200 µg/mL | MIC ([3]; strain E. coli F470 (waaP−)/waaPPa(K69A)): 400 µg/mL | MIC ([4]; strain E. coli F470 (waaP−) complemented with wild type waaPPa): 12,500 μg.ml^−1 | increase of the MIC of waaP-Ec by complementation with wild type waaPPa [4]: 30 times | MIC (E. coli F470 (waaP−); strain E. coli F470 (waaP−)): 400 µg/mL | MIC ([5]; strain E. coli F470 (waaP−)/waaPPa(D163A)): 400 µg/mL | MIC (F470 (wild type); strain F470 (wild type)): >50,000 μg.ml^−1

Nc1ncnc2c1ncn2[C@@H]1O[C@H](COP(=O)(O)OP(=O)(O)OP(=O)(O)O)[C@@H](O)[C@H]1O [ATP, adenosine triphosphate]
Km [6]: 130 µM

B1: WaaPHisC: recombinant P. aeruginosa WaaP with C-terminal 6×His tag, heptose/tyrosine kinase (protein, UniProt Q9HUF7 1-268, looked up)
Lipopolysaccharide core …: MRLVLEEPFKRLWNGRDPFEAVEALQGKVYRELEGRRTLRTEVDGRGYFVKIHRGIGWGEIAKNLLTAKLPVLGARQEWQAIRRLHEAGVATMTAVAYGERGSDPARQHSFIVTEELAPTVDLEVFSQDWRERPPPPRLKRALVEAVARMVGDMHRAGVNHRDCYICHFLLHTDKPVSADDFRLSVIDLHRAQTRDATPKRWRNKDLAALYFSALDIGLTRRDKLRFLRTYFRRPLREILRDEAGLLAWMERKAEKLYERKQRYGDLL
modifications: C-terminal 6xHis tag
notes: recombinant P. aeruginosa WaaP with C-terminal 6×His tag, heptose/tyrosine kinase
Vmax (WaaPHisC; phosphorylation of HF-LPS): 408.24 pmol/min | kcat (WaaPHisC; phosphorylation of HF-LPS): 0.4538 s⁻¹ | enzyme activity remained after storage (WaaPHisC; storage at −20° C. for 7 days): about 70%
